Experiment [1] has as its system integrated stress response (ISR) signaling (p-PERK, p-EIF2α, ATF4, CHOP). The experiment can be described thus: Western blot of ISR signaling in stretched AEC-I monolayers. It counts as cell-based, rat. An excerpt:
To obtain monolayer rat type-II alveolar epithelial cells (AEC-II), cells were isolated from Sprague-Dawley rats (250-300 g, N=30 purchased from Charles River Laboratories, Wilmington, Mass.) described by Tschumperlin D J, Margulies SS. Equibiaxial deformation-induced injury of alveolar epithelial cells in vitro. Am J Physiol. 1998; 275(6 Pt 1):L1173-83. Epub 1998/12/09 (PubMed PMID: 9843855), with modifications. Briefly, animals were killed and the lungs were harvested. The lung tissue was digested with elastase at 37° C. and distal airways were isolated. Following, cells were placed on rat IgG coated containing no serum for 90 minutes to eliminate contaminating leukocytes and parenchymal cells. This isolation method yielded approximately 95% pure alveolar epithelial cell population. 1.3 million cells were plated on 1 cm diameter fibronectin-coated custom made silastic membranes. In permeability studies, biotin were mixed with fibronectin and membranes were pretreated with oxygen plasma coating to ensure homogenous distribution of the fibronectin. Cells were cultured with 10% fetal bovine serum (FBS)-containing Minimal Essential Medium (MEM) containing low dose antibiotics for 3 days. 32 to 40 monolayers were per rat. […] RNAiMax transfection reagent treatment using serum free media (Opti-MEM, Thermo Fisher Scientific, Waltham, Mass.). This is a negative control for siRNA experiments where serum free media is used for improved transfection efficiency; • B. non-targeting siRNA treatment ([…], Dharmacon) serves a negative control for transfection; • C. 0.5 μg siRNA treatment targeting PERK; • D. 0.5 μg siRNA treatment targeting ATF4; • E. 0.5 μg siRNA treatment targeting CHOP; • F. vehicle control (DMSO) for PI; and • G. 1 μM PI treatment.
The dose of siRNA and PI treatment was selected based on dose-response curves above (FIG. 2A-FIG. 2E). AEC-II transformed to AEC-I cells and formed a complete monolayer by day 4, expressing only AEC-I cell surface markers. On the day of the experiment, the medium was removed and replaced with HEPES-buffered MEM. Cells stretch was performed in a 37° C. incubator. The effect of ISR inhibition or control treatment was compared in the following three conditions (N=5 biological replicates/condition): 1) no stretch (NS) controls; 2) mechanical stretch with 12% surface change (S 12%); and 3) mechanical stretch with 25% surface change (S25%). The cell monolayers were exposed to the above mentioned conditions for 6 hours based on time course of ISR protein expression obtained during preliminary data collection (FIG. 2A-FIG. 2E). All membranes were treated with FITC-labeled streptavidin (Thermo Fisher Scientific) at the end of the experiment and light emission was detected at 488 nm with fluorescent microscopy (Nikon TE300, Melville, N.Y.). In a separate set of experiments (N=30 rats), in which the above mentioned treatment plan and conditions were used, cells were harvested at the end of the experiment by scraping them in RIPA buffer and total protein was extracted (N=3 membranes/treatment group performed for N=5 biological replicates per condition). Co-immunoprecipitation (IP) assays were performed using 5 μg of ZO-1 protein as bait (IP kit, Thermo Fisher Scientific). Following co-IP, immunoblotting was performed for ZO-1, OCLN and CLDN proteins 4, 7 and 18 (Invitrogen, Carlsbad, Calif.).
Rats (N=106) were euthanized with an overdose of sodium pentobarbital (55 mg/kg). The chest was shaved and cleaned with Wexcide. Tracheostomy was performed, and a 14 gauge (G) metal cannula was inserted in the trachea lumen. The animals were connected to a rodent ventilator (Harvard Apparatus Model 640, Holliston, Mass.). Subsequently, the chest and abdomen were opened by a midline incision, and the aorta was transected causing exsanguination. […]

Experiment [2] concerns AEC-I monolayers. Description: Stretch-induced cell death, ethidium homodimer staining. In kind it is cell-based, rat. To be noted: stretched monolayers, 1 μM PI pretreatment. From the text: To assess the effect of ISR inhibition on stretch-induced cell death, dead to live cell ratio was quantified with triple Ethidium homodimer (dead cells)-Calcinein (live cells) and nuclear (DAPI) stain (Thermo Fisher Scientific). Fluorescent light emission from cells was captured with fluorescent microscopy and quantified in the same fashion as described in the “Mechanical stretch activates ISR and cell death in AEC-I” section. N=30 rats were used to obtain data from N=5 biological replicates/condition for each treatment group. Data was expressed as the number of dead cells per total cells as depicted in FIG. 3G. […]
To measure permeability, the silastic membranes were coated with biotinylated fibronectin and cells were cultured on the apical surface. […] Light emission at 488 nm was measured for monolayers using fluorescent microscopy (Nikon TE300, Melville, N.Y.). […] The emitted fluorescence is proportional to the monolayer damage caused by stretch and is detectable by fluorescent microscopy. […] The maximum pixel intensity in the background of unstretched-untreated monolayers was measured and used as a threshold to exclude unstained regions. The percentage of each image area above the threshold intensity was determined and then divided by the value for the unstretched control group to calculate the normalized area percentage (nArea) of each image. […] Data were expressed as ±SEM. […]

The mark [3] stands for this setting: stretched AEC-I monolayers, 1 μM PI, 24 hours pretreatment.
Where [4] appears, read: unstretched monolayers, 1 μM PI for 18 hours.

On to `Cn1cc(-c2ccc3c(c2)CCN3C(=O)Cc2cccc(C(F)(F)F)c2)c2c(N)ncnc21` [PI, 1-[5-(4-Amino-7-methyl-7H-pyrrolo[2,3-d]pyrimidin-5-yl)indolin-1-yl]-2-(3-trifluoromethylphenyl)ethanone], for which, in experiment [1] (setting [3]), the ATF4 entry is given as “decreased”, the CHOP result is given as “decreased”, the p-EIF2α result was “decreased” and the p-PERK result was “decreased”. Also, in experiment [1] (setting [4]), the “Level of ATF4” value is listed as “unaffected”, the “Level of CHOP” value was “unaffected”, the “Level of p-EIF2α” value is listed as “unaffected” and the “Level of p-PERK” value was “unaffected”. In experiment [2], the stretch-induced cell death entry is listed as “decreased”.
